“And” between values parts separate entries of the source, which are not always exact repeats. Equal entries are not always repeated.
How the values were obtained:
[1] = target: Mu-type opioid receptor (Bos taurus, UniProt P79350)
[2] = target: Opioid receptor delta 1 (Bos taurus, UniProt F1N083)
Opioid receptor delta 1, sequence (F1N083 whole entry): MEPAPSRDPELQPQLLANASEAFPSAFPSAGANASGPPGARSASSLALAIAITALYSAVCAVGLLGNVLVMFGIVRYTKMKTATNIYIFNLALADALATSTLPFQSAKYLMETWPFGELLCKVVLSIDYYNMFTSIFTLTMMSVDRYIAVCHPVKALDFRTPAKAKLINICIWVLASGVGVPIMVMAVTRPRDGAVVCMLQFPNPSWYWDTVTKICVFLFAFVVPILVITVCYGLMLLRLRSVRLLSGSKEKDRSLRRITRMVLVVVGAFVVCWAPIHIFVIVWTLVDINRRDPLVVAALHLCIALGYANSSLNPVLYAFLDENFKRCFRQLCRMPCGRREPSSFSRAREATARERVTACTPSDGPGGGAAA

Mu-type opioid receptor, sequence (P79350 whole entry): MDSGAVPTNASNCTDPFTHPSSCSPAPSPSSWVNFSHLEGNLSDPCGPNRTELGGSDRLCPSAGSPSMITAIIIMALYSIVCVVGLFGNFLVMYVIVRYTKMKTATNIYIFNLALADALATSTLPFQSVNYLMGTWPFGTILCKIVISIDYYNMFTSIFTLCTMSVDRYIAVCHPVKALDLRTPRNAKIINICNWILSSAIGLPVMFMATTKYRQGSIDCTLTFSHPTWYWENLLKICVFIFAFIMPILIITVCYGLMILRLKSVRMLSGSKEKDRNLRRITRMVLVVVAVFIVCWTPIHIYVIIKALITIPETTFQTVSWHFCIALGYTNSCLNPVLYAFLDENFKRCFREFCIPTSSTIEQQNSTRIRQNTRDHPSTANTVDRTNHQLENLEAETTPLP

SMILES | Ki [1] | Ki [2] [nM]
CC(=O)OC1CCC2C3Cc4ccc(O)c5c4C2(CCN3C)C1O5 (configuration not stated) [6-AcDHM] | 1.83 nM and 12.3 nM | –
CN1CCC23c4c5ccc(O)c4OC2C(O)CCC3C1C5 (configuration not stated) [CAS_509-60-4] | – | 1000

— BindingDB's records for doi:10.1016/j.ejphar.2004.03.050 (Memorial Sloan-Kettering Cancer Center, 2004)
